The values that follow come from ChEMBL document CHEMBL4480363, “Recent developments in compounds acting in the DNA minor groove” (Medchemcomm, 2019).

For assay [1], the system named is Candida albicans. Nature of the assay: Antifungal activity against Candida albicans SC5314 incubated for 24 hrs by CLSI based broth microdilution method. The assay is classed as functional. The following applies: SC5314, 24 h. (In broth dilution the organism is exposed to a series of concentrations in liquid medium.)
Assay [2] concerns Nakaseomyces glabratus. Nature of the assay: Antifungal activity against Candida glabrata ATCC 2001 incubated for 24 hrs by CLSI based broth microdilution method. The assay is classed as functional. To be noted: ATCC 2001, 24 h.
Assay [3] concerns Candida parapsilosis. Description: Antifungal activity against Candida parapsilosis ATCC 22019 incubated for 24 hrs by CLSI based broth microdilution method. Type of assay: functional. The following applies: Lodderomyces parapsilosis, ATCC 22019, 24 h.
The test system of assay [4] is Mycobacterium tuberculosis. Nature of the assay: Antitubercular activity against Mycobacterium tuberculosis HN878 in presence of non-ionic surfactant vesicles relative to compound alone. The assay is classed as functional.
The test system of assay [5] is Mycobacterium tuberculosis. Description: Antitubercular activity against Mycobacterium tuberculosis HN878. The assay is classed as functional.
Assay [6] deals with Trypanosoma brucei gambiense. Description: Trypanocidal activity against Trypanosoma brucei gambiense. The assay is classed as functional, organism-based.

≈ marks a conversion by molar mass, not a printed value.

Consider `Cl.Cl.N=C(N)N/N=C/c1ccc(-c2ccc(/C=N/NC(=N)N)s2)cc1`, for which the MIC50 in assay [1], in assay [2] and in assay [3] was 2 to 15.6 µg/mL in each case.
With `Cn1cc(NC(=O)c2cc(NC(=O)c3ccc(/C=C/c4nc5ccccc5s4)cc3)cn2C)cc1C(=O)NCCC(=N)N`, in assay [4], the “fold change (FC)” value was 1.6. The MIC50 – broadly, an inhibitory concentration at the 50% level, which refers to growth in some studies and to a panel of isolates in others – in assay [5] amounted to 4.09 µM (≈ 2.43 µg/mL).
Turning to `C/C(=N\NC(=N)N)c1ccc(-c2ccc(/C(C)=N/NC(=N)N)s2)cc1.Cl.Cl`, the MIC50 in assay [1], in assay [2] and in assay [3] was 2 to 15.6 µg/mL throughout.
For `Cl.Cl.N=C(N)N/N=C/c1ccc(-c2cnc(-c3ccc(/C=N/NC(=N)N)cc3)s2)cc1`, the MIC50 in assay [1], in assay [2] and in assay [3] was 2 to 15.6 µg/mL in each case.
On to `N=C(N)c1ccc(OCCCCCOc2ccc(C(=N)N)cc2)cc1` [PENTAMIDINE], for which the IC50 – broadly, the concentration at which inhibition is half-maximal – in assay [6] was 1 to 10 nM.
Take `Cl.Cl.N=C(N)N/N=C/c1ccc(-c2ccc(/C=N/NC(=N)N)o2)cc1`: the MIC50 in assay [1], in assay [2] and in assay [3] was 2 to 15.6 µg/mL in each case.
As for `Cn1cc(NC(=O)c2cc(NC(=O)c3ccc(/C=C/c4ccc(C(F)(F)F)cc4)cc3)cn2C)cc1C(=O)NCCC(=N)N`, the “fold change (FC)” value in assay [4] is recorded as 2.1. Further, the MIC50 in assay [5] turned out to be 4.19 µM (≈ 2.54 µg/mL).
